Counter-ions that a name gives are not always drawn.
How the values were obtained:
[1] = Particle Size Distribution (PSD) by Laser Diffraction Spectrometry (Malvern Mastersizer 2000); assay type: physicochemical; conditions: sample in heptane with 0.2% Span-20, by volume
Protocol: Laser Diffraction Spectrometry (LDS) was used to determine the Particle Size Distribution (PSD). The samples were prepared by mixing 100 mg of asenapine maleate with 5 mL of heptane that contains 0.2% of Span-20. Ultrasonic treatment of the samples was performed for 5 minutes and the PSD was analysed using a particle size analyzer Malvern Mastersizer 2000. Refractive index of asenapine 1.800 and absorption 0.01.

[2] = micronised, per EP 1 710 245 B1 and EP 1 917 267 B1; cited from earlier work
[3] = Outcome of micronisation of asenapine maleate crystals; assay type: physicochemical; conditions: micronised crystals, prepared as disclosed in U.S. Pat. No. 4,145,434
Protocol: As described in Funke et al., Arzneim.-Forsch./Drug Res., 40:536-539 (1990), asenapine maleate (Form H) was the first known polymorphic form. Form H is a monoclinic crystalline form having a melting point in the range of 141° C. to 145° C. EP 1 710 245 B1 and EP 1 917 267 B1 described the discovery of a new form of asenapine maleate (Form L), which is an orthorhombic crystalline form having a melting point in the range of 138° C. to 142° C. EP 1 710 245 131 and EP 1 917 267 B1 mention the importance of asenapine particle size since asenapine commercial sublingual tablets are dissolved in the mouth. Thus, particles having a size distribution characterized by a d95 (95% volume of the particles are smaller than or equal to the indicated size) of about 100 μm or less, more preferably about 50 μm or less, and even more preferably about 30 μm or less, is desirable for sublingual formulations. According to EP 1 710 245 B1 and EP 1 917 267 B1, the outcome of the micronisation process used therein, and which is necessary to reduce the particle size of crystals, appeared to be unpredictable when crystals of monoclinic form of asenapine maleate were subjected to the micronisation process. […]

PSD d90 [1]	PSD d95 [1]	Compound	d95 after micronisation [2]	polymorphic stability after micronisation [3]
31 μm	37 μm	CN1C[C@@H]2c3ccccc3Oc3ccc(Cl)cc3[C@H]2C1 (racemic) [Example 3, asenapine maleate]		
46 μm	56 μm	CN1C[C@@H]2c3ccccc3Oc3ccc(Cl)cc3[C@H]2C1 (racemic) [Example 6, asenapine maleate]		
21 μm	28 μm	CN1C[C@@H]2c3ccccc3Oc3ccc(Cl)cc3[C@H]2C1 (racemic) [Example 4, asenapine maleate]		
53 μm	120 μm	CN1C[C@@H]2c3ccccc3Oc3ccc(Cl)cc3[C@H]2C1 (racemic) [Example 12, asenapine maleate]		
		CN1C[C@@H]2c3ccccc3Oc3ccc(Cl)cc3[C@H]2C1 (racemic) [asenapine maleate]	≤ 30 μm	
23 μm	28 μm	CN1C[C@@H]2c3ccccc3Oc3ccc(Cl)cc3[C@H]2C1 (racemic) [Example 9, asenapine maleate]		
		CN1C[C@@H]2c3ccccc3Oc3ccc(Cl)cc3[C@H]2C1 (racemic) [monoclinic form of asenapine maleate, asenapine maleate]		not stable and eventually evolved to the orthorhombic crystalline form
31 μm	38 μm	CN1C[C@@H]2c3ccccc3Oc3ccc(Cl)cc3[C@H]2C1 (racemic) [Example 13, asenapine maleate]		
37 μm	49 μm	CN1C[C@@H]2c3ccccc3Oc3ccc(Cl)cc3[C@H]2C1 (racemic) [Example 10, asenapine maleate]		
36 μm	48 μm	CN1C[C@@H]2c3ccccc3Oc3ccc(Cl)cc3[C@H]2C1 (racemic) [Example 7, asenapine maleate]		
15 μm	20 μm	CN1C[C@@H]2c3ccccc3Oc3ccc(Cl)cc3[C@H]2C1 (racemic) [Example 2, asenapine maleate]		
54 μm	68 μm	CN1C[C@@H]2c3ccccc3Oc3ccc(Cl)cc3[C@H]2C1 (racemic) [Example 8, asenapine maleate]		
17 μm	21 μm	CN1C[C@@H]2c3ccccc3Oc3ccc(Cl)cc3[C@H]2C1 (racemic) [Example 11, asenapine maleate]		
16 μm	24 μm	CN1C[C@@H]2c3ccccc3Oc3ccc(Cl)cc3[C@H]2C1 (racemic) [Example 1, asenapine maleate]		
29 μm	35 μm	CN1C[C@@H]2c3ccccc3Oc3ccc(Cl)cc3[C@H]2C1 (racemic) [Example 5, asenapine maleate]		

— US9533994B2, “Monoclinic crystalline form of asenapine maleate with a specific particle size distribution” (Laboratorios Lesvi S.L., priority 2011, dated 2017)
